Laboratory results taken from ChEMBL document CHEMBL2424545, “Structure-efficiency relationship of [1,2,4]triazol-3-ylamines as novel nicotinamide isosteres that inhibit tankyrases” (J Med Chem, 2013).

Biological target: Poly [ADP-ribose] polymerase 2 (Homo sapiens, UniProt Q9UGN5)
Assay: Inhibition of PARP2 (unknown origin) after 60 mins by LC-MS analysis
Settings: not given

Poly [ADP-ribose] polymerase 2, sequence (Q9UGN5 whole entry): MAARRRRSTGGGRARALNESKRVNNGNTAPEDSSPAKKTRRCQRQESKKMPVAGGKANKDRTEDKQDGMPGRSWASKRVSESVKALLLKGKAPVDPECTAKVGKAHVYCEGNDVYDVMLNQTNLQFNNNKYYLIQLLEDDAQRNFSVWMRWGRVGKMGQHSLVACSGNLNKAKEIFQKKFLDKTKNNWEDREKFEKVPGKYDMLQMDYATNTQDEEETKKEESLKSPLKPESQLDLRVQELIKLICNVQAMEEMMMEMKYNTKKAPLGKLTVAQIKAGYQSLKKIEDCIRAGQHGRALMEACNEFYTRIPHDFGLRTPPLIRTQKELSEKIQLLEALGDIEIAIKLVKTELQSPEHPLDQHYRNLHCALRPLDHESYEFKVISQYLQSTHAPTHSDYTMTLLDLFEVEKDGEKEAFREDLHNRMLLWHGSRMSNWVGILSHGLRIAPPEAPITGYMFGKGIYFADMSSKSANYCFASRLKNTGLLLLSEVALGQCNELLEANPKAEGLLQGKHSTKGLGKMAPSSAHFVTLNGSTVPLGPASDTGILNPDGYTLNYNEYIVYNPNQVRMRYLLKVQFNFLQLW

Row | IC50 [nM] | SMILES
1 | 4700 | O=C(CCc1ccc(Cl)cc1Cl)Nc1nnc2n1CCS2

Biological target: T1, Poly [ADP-ribose] polymerase tankyrase-1 (Homo sapiens, UniProt O95271)
T1 sequence (O95271 whole entry): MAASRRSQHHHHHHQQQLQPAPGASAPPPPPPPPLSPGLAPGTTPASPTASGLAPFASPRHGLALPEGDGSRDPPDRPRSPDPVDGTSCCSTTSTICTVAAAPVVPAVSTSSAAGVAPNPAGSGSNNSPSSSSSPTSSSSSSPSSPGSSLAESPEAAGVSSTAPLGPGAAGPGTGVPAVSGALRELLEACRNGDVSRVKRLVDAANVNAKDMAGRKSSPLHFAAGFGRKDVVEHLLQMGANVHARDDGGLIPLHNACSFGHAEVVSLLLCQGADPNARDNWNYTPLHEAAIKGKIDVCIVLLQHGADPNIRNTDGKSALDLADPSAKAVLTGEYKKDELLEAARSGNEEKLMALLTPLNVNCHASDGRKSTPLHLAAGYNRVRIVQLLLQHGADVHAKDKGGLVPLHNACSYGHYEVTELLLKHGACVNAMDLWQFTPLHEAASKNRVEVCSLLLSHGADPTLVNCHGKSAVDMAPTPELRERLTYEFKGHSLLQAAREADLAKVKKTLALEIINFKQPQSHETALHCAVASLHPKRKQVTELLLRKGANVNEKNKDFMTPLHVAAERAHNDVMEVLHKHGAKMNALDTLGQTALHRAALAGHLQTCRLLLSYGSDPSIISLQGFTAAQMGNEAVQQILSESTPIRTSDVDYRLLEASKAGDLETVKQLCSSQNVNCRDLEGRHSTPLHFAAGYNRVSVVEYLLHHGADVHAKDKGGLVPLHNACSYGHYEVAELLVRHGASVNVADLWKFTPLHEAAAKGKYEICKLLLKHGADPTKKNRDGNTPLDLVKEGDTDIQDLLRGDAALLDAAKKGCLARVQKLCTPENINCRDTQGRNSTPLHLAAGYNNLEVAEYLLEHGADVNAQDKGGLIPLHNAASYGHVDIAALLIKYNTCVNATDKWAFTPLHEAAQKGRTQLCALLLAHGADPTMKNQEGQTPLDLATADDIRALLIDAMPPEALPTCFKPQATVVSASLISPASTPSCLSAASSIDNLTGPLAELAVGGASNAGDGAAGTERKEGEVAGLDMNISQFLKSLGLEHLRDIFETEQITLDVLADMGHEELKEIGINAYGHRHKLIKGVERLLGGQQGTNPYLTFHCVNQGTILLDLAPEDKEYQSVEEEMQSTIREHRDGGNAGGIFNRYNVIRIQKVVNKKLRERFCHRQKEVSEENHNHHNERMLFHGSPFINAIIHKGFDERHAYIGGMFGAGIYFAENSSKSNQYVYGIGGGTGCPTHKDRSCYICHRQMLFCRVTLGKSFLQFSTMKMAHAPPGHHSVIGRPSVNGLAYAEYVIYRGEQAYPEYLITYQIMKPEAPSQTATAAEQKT
Assay: Inhibition of N-terminal GST-tagged human TNKS1 expressed in baculovirus infected sf21 cells after 60 mins by LC-MS analysis
Settings: not given

Row | IC50 [nM] | SMILES
2 | 24 | O=C(CCc1ccc(Cl)cc1Cl)Nc1nnc2n1CCS2

Biological target: Poly [ADP-ribose] polymerase 1 (Homo sapiens, UniProt P09874)
Sequence (P09874 whole entry): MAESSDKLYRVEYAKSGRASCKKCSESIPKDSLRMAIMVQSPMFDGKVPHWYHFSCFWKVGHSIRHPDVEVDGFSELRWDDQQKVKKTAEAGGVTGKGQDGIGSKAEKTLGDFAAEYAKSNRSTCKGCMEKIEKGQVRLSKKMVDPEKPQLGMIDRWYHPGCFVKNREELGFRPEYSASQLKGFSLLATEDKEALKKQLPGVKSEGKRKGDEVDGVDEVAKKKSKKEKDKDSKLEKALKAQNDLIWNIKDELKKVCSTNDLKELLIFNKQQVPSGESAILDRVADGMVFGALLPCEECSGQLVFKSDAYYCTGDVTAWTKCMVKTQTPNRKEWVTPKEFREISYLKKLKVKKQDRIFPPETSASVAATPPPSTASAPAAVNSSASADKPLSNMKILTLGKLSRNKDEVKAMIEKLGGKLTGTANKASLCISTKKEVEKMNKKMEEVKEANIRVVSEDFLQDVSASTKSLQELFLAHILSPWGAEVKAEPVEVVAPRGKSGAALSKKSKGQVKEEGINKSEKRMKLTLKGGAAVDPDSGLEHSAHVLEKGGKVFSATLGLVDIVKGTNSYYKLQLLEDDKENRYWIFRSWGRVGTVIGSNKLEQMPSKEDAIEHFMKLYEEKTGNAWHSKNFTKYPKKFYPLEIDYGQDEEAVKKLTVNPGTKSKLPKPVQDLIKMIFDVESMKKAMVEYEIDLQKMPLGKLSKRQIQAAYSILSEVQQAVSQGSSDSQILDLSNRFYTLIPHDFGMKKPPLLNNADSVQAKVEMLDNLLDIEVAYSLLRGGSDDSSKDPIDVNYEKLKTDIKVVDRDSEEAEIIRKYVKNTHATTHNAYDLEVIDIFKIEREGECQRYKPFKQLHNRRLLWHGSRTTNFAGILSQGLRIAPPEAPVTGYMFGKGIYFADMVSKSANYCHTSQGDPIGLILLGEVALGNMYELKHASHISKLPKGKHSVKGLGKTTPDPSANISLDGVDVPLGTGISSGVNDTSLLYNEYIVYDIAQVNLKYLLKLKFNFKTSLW
Assay: not given
Settings: not given

Row | IC50 [nM] | SMILES
3 | > 19000 | O=C(CCc1ccc(Cl)cc1Cl)Nc1nnc2n1CCS2

Test system: not listed separately
Assay: Inhibition of TNKS in human SW480 cells assessed as stabilization of axin2 after 24 hrs by ELISA
Assay type: cell-based
Settings: not given

Row | IC50 [nM] | SMILES
4 | > 10000 | O=C(CCc1ccc(Cl)cc1Cl)Nc1nnc2n1CCS2

Biological target: T2, Poly [ADP-ribose] polymerase tankyrase-2 (Homo sapiens, UniProt Q9H2K2)
T2 sequence (Q9H2K2 whole entry): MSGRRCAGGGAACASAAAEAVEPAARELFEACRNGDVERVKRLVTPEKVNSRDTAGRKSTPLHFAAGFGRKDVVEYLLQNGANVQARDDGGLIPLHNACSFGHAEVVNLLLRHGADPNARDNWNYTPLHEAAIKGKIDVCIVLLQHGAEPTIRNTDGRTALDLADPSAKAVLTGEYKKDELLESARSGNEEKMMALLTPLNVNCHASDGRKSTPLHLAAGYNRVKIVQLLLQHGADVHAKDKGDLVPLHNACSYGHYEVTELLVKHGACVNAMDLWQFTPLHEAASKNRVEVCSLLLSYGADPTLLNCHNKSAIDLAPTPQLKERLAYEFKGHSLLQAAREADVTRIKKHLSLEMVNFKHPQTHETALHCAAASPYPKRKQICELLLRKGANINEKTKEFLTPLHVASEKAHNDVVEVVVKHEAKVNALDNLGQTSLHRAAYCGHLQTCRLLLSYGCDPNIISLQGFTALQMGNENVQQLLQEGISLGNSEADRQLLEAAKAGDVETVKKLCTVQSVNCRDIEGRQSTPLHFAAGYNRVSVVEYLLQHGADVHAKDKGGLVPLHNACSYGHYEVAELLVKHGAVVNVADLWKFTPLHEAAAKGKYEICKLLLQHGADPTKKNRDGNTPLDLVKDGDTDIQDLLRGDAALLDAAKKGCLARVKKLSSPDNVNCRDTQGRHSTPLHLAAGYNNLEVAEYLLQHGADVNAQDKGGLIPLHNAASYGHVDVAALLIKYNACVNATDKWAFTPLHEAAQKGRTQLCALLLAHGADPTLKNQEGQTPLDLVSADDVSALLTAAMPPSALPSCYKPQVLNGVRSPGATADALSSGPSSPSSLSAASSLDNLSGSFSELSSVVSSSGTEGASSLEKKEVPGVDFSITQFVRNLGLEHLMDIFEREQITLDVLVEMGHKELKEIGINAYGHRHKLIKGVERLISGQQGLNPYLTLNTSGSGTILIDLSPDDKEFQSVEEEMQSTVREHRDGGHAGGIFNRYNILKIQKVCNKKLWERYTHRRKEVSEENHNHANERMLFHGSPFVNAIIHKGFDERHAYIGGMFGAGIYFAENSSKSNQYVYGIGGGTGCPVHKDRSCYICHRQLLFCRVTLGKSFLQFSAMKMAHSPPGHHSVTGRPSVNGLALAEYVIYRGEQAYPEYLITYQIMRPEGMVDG
Assay: Inhibition of N-terminal GST-tagged TNKS2 (unknown origin) expressed in baculovirus infected sf21 cells after 60 mins by LC-MS analysis
Settings: not given

Row | SMILES | IC50 [nM]
5 | CC(=O)Nc1nnc2n1CCS2 | > 19000
6 | O=C(Nc1nnc2n1CCCS2)c1ccccc1 | 2760
7 | CC(=O)Nc1nnc2n1CCCS2 | > 19000
8 | O=C(Nc1nnc2n1CCS2)C1CC1 | 2010

Molecules with a lower IC50, results first:

Row | IC50 [nM] | SMILES
9 | 239 | O=C(Cc1ccccc1)Nc1nnc2n1CCS2
10 | 250 | O=C(Nc1nnc2n1CCS2)c1ccccc1
11 | 195 | Cc1n[nH]c(C)c1CCC(=O)Nc1nnc2n1CCS2
12 | 980 | CC(C)CC(=O)Nc1nnc2n1CCCS2
13 | 5 | O=C(CCc1ccc(Cl)cc1Cl)Nc1nnc2n1CCS2

Test system: not listed separately
Assay: Hepatic extraction ratio in mouse liver microsomes
Assay type: ADME, Microsome
Settings: read-out: ERH

Row | hepatic extraction ratio | SMILES
14 | 0.91 | O=C(CCc1ccc(Cl)cc1Cl)Nc1nnc2n1CCS2

Test system: not listed separately
Assay: Inhibition of Wnt signaling in human HEK293 cells by STF luciferase reporter gene assay
Settings: not given

Row | IC50 [nM] | SMILES
15 | 7270 | O=C(Cc1ccccc1)Nc1nnc2n1CCS2
16 | > 10000 | Cc1n[nH]c(C)c1CCC(=O)Nc1nnc2n1CCS2
17 | > 50000 | O=C(Nc1nnc2n1CCS2)C1CC1
18 | 116 | O=C(CCc1ccc(Cl)cc1Cl)Nc1nnc2n1CCS2
